Source: patent US20210186982A1, “METHODS AND COMPOSITIONS FOR TREATING MELANOMA” (UNIVERSITE NICE SOPHIA ANTIPOLIS, priority 2017, published 2021)

Columns and labels:
A375 = experiment: MTS conversion assay, melanoma cell proliferation; format: cell-based, human; settings: 24 h; increasing doses up to 10 μM
Procedure: Cell proliferation was measured by a MTS conversion assay using the CellTiter 96® Aqueous Non-Radioactive Cell Proliferation kit (Promega, Madison Wis.) according to the manufacturer instructions. Cells were seeded in 96-well plates (5×10^4 cells/well) and treated with different reagents for the indicated times and incubated at 37° C. with MTS reagent. The optical density of each sample at 490 nm was determined with a Multiskan FC plate reader (Thermo Fisher Scientific, Waltham, Mass. USA).

melanoma cell cultures = experiment: Cytotoxicity of b-AP15 in presence of NAC or pan-caspase inhibitor; format: cell-based, human; settings: co-incubation with b-AP15
A375 cells = experiment: ROS production (CM-H2DCFDA, flow cytometry); format: cell-based, human; settings: 5 mM NAC with 2 μM b-AP15
Procedure: ROS levels were measured using the redox-sensitive dye CM-H2DCFDA (Thermo Fischer Scientific). After treatment, cells were stained with 10 μM CM-H2DCFDA in PBS for 30 min at 37° C. Cells were washed with PBS and resuspended in PBS 5 mM EDTA/1% BSA. ROS production was analysed using a MACSQuant® Analyzer 10 cytometer (Miltenyi Biotech).

A375 and Me1501 cells = experiment: Cytotoxicity, cytotox green reagent (IncuCyte); format: cell-based, human; settings: 72 h; compared with b-AP15
Procedure: FIG. 8. USP14 inhibition induces growth inhibition and cytotoxicity on melanoma cell lines. (A) Growth curve of A375 treated with 2 μM b-AP15, 2 μM VLX1570 or […] bortezomib (BTZ). Data were acquired in triplicate during 3 days using an IncuCyte Zoom. (B) and (C) Cytotoxic effects of USP14 inhibition on melanoma cells. A375 and Me1501 cells were treated with the indicated doses of b-AP15 or VLX1570, and stained with cytotox green reagent (100 nM). Cytotoxicity was monitored in triplicate for 72 h with an IncuCyte imaging system.

USP14 = molecular target: T1, USP14 (Homo sapiens, UniProt P54578); experiment: DUB trap assay (HA-Ub-VS probe, anti-USP14 immunoblot); format: cell-based; settings: A375 melanoma cells
T1 construct: endogenous in cells; host or cells: A375 (also 1205Lu, 501Mel, SKMel28, 451Lu) melanoma cells; cell lysates
T1 sequence (P54578 whole entry): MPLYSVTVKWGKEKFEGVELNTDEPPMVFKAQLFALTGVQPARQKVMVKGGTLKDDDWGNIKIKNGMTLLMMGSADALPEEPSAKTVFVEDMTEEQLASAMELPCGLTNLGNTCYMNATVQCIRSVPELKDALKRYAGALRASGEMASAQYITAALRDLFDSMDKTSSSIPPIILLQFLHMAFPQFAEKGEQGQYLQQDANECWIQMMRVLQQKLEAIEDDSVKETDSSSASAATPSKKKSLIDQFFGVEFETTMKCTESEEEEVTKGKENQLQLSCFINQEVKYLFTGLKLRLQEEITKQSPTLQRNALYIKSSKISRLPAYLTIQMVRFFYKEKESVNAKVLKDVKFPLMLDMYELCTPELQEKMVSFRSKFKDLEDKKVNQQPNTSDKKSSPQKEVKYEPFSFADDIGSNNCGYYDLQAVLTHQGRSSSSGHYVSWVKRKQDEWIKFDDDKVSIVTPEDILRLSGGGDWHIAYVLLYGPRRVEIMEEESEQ
Procedure: (§1) Cells were harvested, washed with PBS and pellets were dried then freezed (−80° C.) and subsequently lysed in ice-cold buffer containing 50 mM Tris (pH 7.4), 5 mM MgCl2, 250 mM sucrose, 1 mM DTT, 2 mM ATP, and 1 mM PMSF and mild sonication. Lysates were cleared by centrifugation, and 20 μg of protein extracts were incubated for 25 min at 37° C. with 2 μM HA-Ub-VS (Boston Biochem, Cambridge, Mass.). After boiling in reducing sample buffer, labelled cell lysates were subjected to immunoblot analysis as described above using the indicated antibodies.

UCHL5 = molecular target: T2, UCHL5 (Homo sapiens, UniProt Q9Y5K5); experiment: DUB trap assay (HA-Ub-VS probe, anti-UCHL5 immunoblot); format: cell-based
T2 construct: 20 μg of protein extracts were incubated for 25 min at 37° C. with 2 μM HA-Ub-VS; endogenous in cells; host or cells: A375 melanoma cells; cell lysates
T2 sequence (Q9Y5K5 whole entry): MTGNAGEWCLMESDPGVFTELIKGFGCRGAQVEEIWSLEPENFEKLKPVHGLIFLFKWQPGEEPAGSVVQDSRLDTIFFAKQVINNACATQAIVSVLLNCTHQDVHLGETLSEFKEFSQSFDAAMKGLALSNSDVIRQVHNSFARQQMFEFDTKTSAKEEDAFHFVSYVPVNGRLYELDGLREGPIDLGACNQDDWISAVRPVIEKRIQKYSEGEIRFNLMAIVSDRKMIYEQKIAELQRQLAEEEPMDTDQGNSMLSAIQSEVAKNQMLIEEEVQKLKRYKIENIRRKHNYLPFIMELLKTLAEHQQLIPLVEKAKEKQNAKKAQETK
Procedure: as §1

[1] = Annexin-V-FITC/7-AAD flow cytometry, cell viability; format: cell-based; settings: human, A375 cells; solvent 87%
Procedure: Cell death was evaluated by flow cytometry following staining with Annexin-V-FITC and 7-AAD (eBiosciences) as previously described 24.

N#Cc1nc2c(nc1C#N)-c1ccc(Cl)cc1C2=O [HBX41108]
cell proliferation of A375 cells (MTS) (A375): drastically decreased cell proliferation

CC(=O)N[C@@H](CS)C(=O)O [NAC, N-acetyl-L-cysteine]
effect on cytotoxicity of b-AP15 (melanoma cell cultures): blocked
effect on b-AP15-triggered burst of ROS (A375 cells): inhibited

CC(C)[C@H](NC(=O)c1ccc2ccccc2n1)C(=O)N[C@@H](CC(=O)O)C(=O)COc1c(F)cccc1F [QVD-OPh]
effect on cytotoxicity of b-AP15 (melanoma cell cultures): did not prevent the cytotoxic action of b-AP15

C=CC(=O)N1CC/C(=C\c2ccc(F)c([N+](=O)[O-])c2)C(=O)/C(=C/c2ccc(F)c([N+](=O)[O-])c2)C1 [VLX1570]
melanoma cell death (A375 and Me1501 cells): induced to similar levels
USP14 activity (USP14-Ub-HA) in A375 cells (USP14): blocked USP14
UCHL5 activity (UCHL5-Ub-HA) in A375 cells (UCHL5): not UCHL5

CCC[C@H](NC(=O)/C(C#N)=C/c1cccc(Br)n1)c1ccccc1 [WP1130]
cell proliferation of A375 cells (MTS) (A375): drastically decreased cell proliferation

CN[C@@H]1C[C@H]2O[C@@](C)([C@@H]1OC)n1c3ccccc3c3c4c(c5c6ccccc6n2c5c31)C(=O)NC4 [staurosporine]
viability [1]: 56%
